Test results: ChEMBL document CHEMBL1201862, “PubChem BioAssay data set” (2004)
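96-well plates; 48 h exposure; 5 concentrations. Endpoints by linear interpolation between flanking doses. Not reached: highest tested concentration assigned. GI50 is the concentration that inhibits growth by half.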 The source made the active and inactive calls. Rule as the data show it: active = GI50 up to about 1.1 µM and inactive = higher.

Assays:
Assay in all cases: NCI-60 cell line screen, 48 h
[1] = system: A498
[2] = system: DU-145
[3] = system: SK-MEL-28
[4] = system: MDA-MB-435
[5] = system: NCI-H23
[6] = system: HOP-62
[7] = system: SF-539
[8] = system: OVCAR-8
[9] = system: U-251
[10] = system: SK-MEL-5
[11] = system: CAKI-1
[12] = system: HT-29
[13] = system: SN12C
[14] = system: SW-620
[15] = system: OVCAR-4
[16] = system: HCC 2998
[17] = system: T47D
[18] = system: MCF7
[19] = system: SNB-75
[20] = system: SK-MEL-2
[21] = system: NCI-H460
[22] = system: OVCAR-5
[23] = system: NCI/ADR-RES
[24] = system: SNB-19
[25] = system: Hs-578T
[26] = system: HCT-15
[27] = system: SF-295
[28] = system: A549
[29] = system: KM12
[30] = system: ACHN
[31] = system: LOX IMVI
[32] = system: UACC-257
[33] = system: CCRF-CEM
[34] = system: HL-60
[35] = system: UACC-62
[36] = system: IGROV-1
[37] = system: 786-0
[38] = system: UO-31
[39] = system: NCI-H226
[40] = system: M14
[41] = system: COLO 205
[42] = system: HCT-116
[43] = system: TK-10
[44] = system: MDA-N
[45] = system: SR
[46] = system: K562
[47] = system: PC-3
[48] = system: RPMI-8226
[49] = system: EKVX
[50] = system: MOLT-4
[51] = system: SK-OV-3
[52] = system: Malme-3M
[53] = system: SF-268
[54] = system: MDA-MB-231
[55] = system: OVCAR-3
[56] = system: HOP-92
[57] = system: RXF 393
[58] = system: NCI-H522

O=C(CC(C(=O)c1cccs1)c1cccs1)c1ccccc1Cl (stereo unspecified)
GI50 [1]: > 100 µM (inactive) | GI50 [2]: > 100 µM (inactive) | GI50 [3]: 81.7 µM (inactive) | GI50 [4]: > 100 µM (inactive) | GI50 [5]: 33 µM (inactive) | GI50 [6]: > 100 µM (inactive) | GI50 [7]: > 100 µM (inactive) | GI50 [8]: > 100 µM (inactive) | GI50 [9]: > 100 µM (inactive) | GI50 [10]: > 100 µM (inactive) | GI50 [11]: > 100 µM (inactive) | GI50 [12]: 76.6 µM (inactive) | GI50 [13]: > 100 µM (inactive) | GI50 [14]: > 100 µM (inactive) | GI50 [15]: > 100 µM (inactive) | GI50 [16]: > 100 µM (inactive) | GI50 [17]: 52 µM (inactive) | GI50 [18]: > 100 µM (inactive) | GI50 [19]: > 100 µM (inactive) | GI50 [20]: > 100 µM (inactive) | GI50 [21]: 77.1 µM (inactive) | GI50 [22]: > 100 µM (inactive) | GI50 [23]: 33.5 µM (inactive) | GI50 [24]: > 100 µM (inactive) | GI50 [25]: 75.3 µM (inactive) | GI50 [26]: 94.8 µM | GI50 [27]: > 100 µM (inactive) | GI50 [28]: > 100 µM (inactive) | GI50 [29]: 93.1 µM (inactive) | GI50 [30]: > 100 µM (inactive) | GI50 [31]: > 100 µM (inactive) | GI50 [32]: 74.3 µM (inactive) | GI50 [33]: > 100 µM (inactive) | GI50 [34]: 76.4 µM (inactive) | GI50 [35]: > 100 µM (inactive) | GI50 [36]: > 100 µM (inactive) | GI50 [37]: > 100 µM (inactive) | GI50 [38]: 29.7 µM (inactive) | GI50 [39]: > 100 µM (inactive) | GI50 [40]: > 100 µM (inactive) | GI50 [41]: 54 µM (inactive) | GI50 [42]: 52.1 µM (inactive) | GI50 [43]: > 100 µM (inactive) | GI50 [44]: 97.7 µM (inactive) | GI50 [45]: 39.5 µM (inactive) | GI50 [46]: 98.4 µM (inactive) | GI50 [47]: 72.9 µM (inactive) | GI50 [48]: 50.1 µM (inactive) | GI50 [49]: 49.8 µM (inactive) | GI50 [50]: 46.1 µM (inactive) | GI50 [51]: > 100 µM (inactive) | GI50 [52]: 61.8 µM (inactive) | GI50 [53]: > 100 µM (inactive) | GI50 [54]: > 100 µM (inactive)

O=C1/C(=N/O)Cc2c(Br)ccc(Br)c21
GI50 [1]: 68.1 µM (inactive) | GI50 [2]: 71.6 µM (inactive) | GI50 [3]: 60.3 µM (inactive) | GI50 [4]: 39.6 µM (inactive) | GI50 [5]: 58.7 µM (inactive) | GI50 [6]: > 100 µM (inactive) | GI50 [55]: 22.3 µM (inactive) | GI50 [7]: > 100 µM (inactive) | GI50 [8]: 42.7 µM (inactive) | GI50 [56]: > 100 µM (inactive) | GI50 [9]: 39.6 µM (inactive) | GI50 [57]: 99.3 µM (inactive) | GI50 [10]: 32.4 µM (inactive) | GI50 [11]: 42.4 µM (inactive) | GI50 [12]: > 100 µM (inactive) | GI50 [14]: 63.5 µM (inactive) | GI50 [15]: 33.3 µM (inactive) | GI50 [16]: 24.2 µM (inactive) | GI50 [17]: 51.3 µM (inactive) | GI50 [18]: 36.1 µM (inactive) | GI50 [19]: > 100 µM (inactive) | GI50 [20]: 17.9 µM (inactive) | GI50 [21]: 37.6 µM (inactive) | GI50 [22]: > 100 µM (inactive) | GI50 [23]: 35.7 µM (inactive) | GI50 [25]: 37.8 µM (inactive) | GI50 [26]: 33.7 µM | GI50 [27]: 34.6 µM (inactive) | GI50 [29]: 67.3 µM (inactive) | GI50 [30]: 40.7 µM (inactive) | GI50 [31]: 31.9 µM (inactive) | GI50 [58]: 27.5 µM (inactive) | GI50 [32]: 42.2 µM (inactive) | GI50 [33]: 27.8 µM (inactive) | GI50 [34]: 26.9 µM (inactive) | GI50 [36]: 40 µM (inactive) | GI50 [37]: 74 µM (inactive) | GI50 [38]: > 100 µM (inactive) | GI50 [39]: 68.1 µM (inactive) | GI50 [40]: > 100 µM (inactive) | GI50 [42]: 55.1 µM (inactive) | GI50 [43]: 48.4 µM (inactive) | GI50 [44]: 48.3 µM (inactive) | GI50 [45]: 28.4 µM (inactive) | GI50 [46]: 26 µM (inactive) | GI50 [47]: 27.8 µM (inactive) | GI50 [48]: 24.4 µM (inactive) | GI50 [49]: 28.2 µM (inactive) | GI50 [50]: 25.4 µM (inactive) | GI50 [51]: 37.2 µM (inactive) | GI50 [53]: 35.2 µM (inactive) | GI50 [54]: 46.9 µM (inactive)
